Laboratory results from patent publication US20250144067A1, “PERSONALIZED STARVATION THERAPY FOR CANCER” (Faeth Therapeutics, Inc., priority 2021, published 2025).
Structures can show the parent of a compound that is named as a salt.

Tests used:
[1] = system: NCI-H292 lung cancer cells; assay: FDA drug screening, complete media vs cholesterol-free media without statin (TABLE 1); type: cell-based, human
[2] = system: NCI-H292 lung cancer cells; assay: FDA drug screening, complete media vs cholesterol-free media with simvastatin (TABLE 2); type: cell-based, human; conditions: for Cholesterol-free media + simvastatin (0.04 μM) / Complete Media: NCI-H292 cells
[3] = NCI-H292 cells, cholesterol-free media without statin
[4] = FDA drug library screen, cholesterol-free media with simvastatin 0.04 μM
[5] = FDA drug library screen, complete media
[6] = complete media vs cholesterol-free media + simvastatin (0.04 μM), >0 enhanced anti-cancer activity, about 0 neutral, <0 antagonist
[7] = Complete minus Cholesterol-free, greater than 0 enhanced anti-cancer activity, about 0 neutral, below 0 antagonist
[8] = NCI-H292 cells, FDA drug library screen, cholesterol-free media without statin
[9] = NCI-H292 cells, FDA drug library screen, complete media
[10] = complete media minus cholesterol-free media + simvastatin, >0 enhanced anti-cancer activity, about 0 neutral, <0 antagonist
[11] = NCI-H292 cells, cholesterol-free media without statin, FDA drug library screen
[12] = NCI-H292 cells, complete media, FDA drug library screen
[13] = complete media minus cholesterol-free media + simvastatin, […]
[14] = complete vs cholesterol-free media, >0 enhanced anti-cancer activity, about 0 neutral, <0 antagonist
[15] = cholesterol-free media with simvastatin 0.04 μM, FDA drug library screen (TABLE 2)
[16] = complete media, FDA drug library screen (TABLE 2)
[17] = complete media minus cholesterol-free media + simvastatin (0.04 μM), >0 enhanced anti-cancer activity, about 0 neutral, <0 antagonist
[18] = drug in cholesterol-free media with simvastatin 0.04 μM
[19] = Complete minus Cholesterol-free, […]
[20] = cholesterol-free media with simvastatin 0.04 μM, cell growth value in FDA drug screen
[21] = complete media, cell growth value in FDA drug screen

**Q.** What does the source list for `Nc1c(Br)cc(Br)cc1CN[C@H]1CC[C@H](O)CC1` [Ambroxol]?
**A.** Difference ([1]; Complete minus Cholesterol-free, >0 enhanced anti-cancer activity, about 0 neutral, <0 antagonist): −0.22; Cholesterol-free [1, 3]: 1.134; Complete ([1]; NCI-H292 cells, complete media): 0.9121; Cholesterol-free media + simvastatin (0.04 μM) [2, 4]: 1.121; Complete Media [2, 5]: 0.9656; Difference [2, 6]: −0.16

**Q.** How did the Difference [1, 7] turn out when `CC(=O)OCC(=O)[C@@]12OC3(CCCC3)O[C@@H]1C[C@H]1[C@@H]3CCC4=CC(=O)C=C[C@]4(C)[C@@]3(F)[C@@H](O)C[C@@]12C` [Amcinonide] was run?
**A.** −0.16

**Q.** What about the Cholesterol-free [1, 8] of the same compound?
**A.** 1.081

**Q.** What about the Complete [1, 9] of the same compound?
**A.** 0.9188

**Q.** What about the “Cholesterol-free media + simvastatin (0.04 μM)” value [2, 4] of the same compound?
**A.** 0.5029

**Q.** What about the “Complete Media” value [2, 5] of the same compound?
**A.** 0.766

**Q.** What about the Difference [2, 10] of the same compound?
**A.** 0.26

**Q.** `Cc1cccc(C)c1N(CC(=O)Nc1ccc(-c2ncon2)cc1)C(=O)C1CCS(=O)(=O)CC1` [Amenamevir] was tested. Which Difference [1, 7] did it give?
**A.** −0.08

**Q.** And the Cholesterol-free [1, 8]?
**A.** 0.9508

**Q.** What about the Complete [1, 9] of the same compound?
**A.** 0.8718

**Q.** And the “Cholesterol-free media + simvastatin (0.04 μM)” value [2, 4]?
**A.** 0.9047

**Q.** What about the “Complete Media” value [2, 5] of the same compound?
**A.** 1.06

**Q.** What about the Difference [2, 10] of the same compound?
**A.** 0.16

**Q.** What does the source list for `COS(=O)(=O)[O-].COc1cc(N)cn[n+]1-c1ccccc1` [Amezinium (methylsulfate)]?
**A.** Cholesterol-free [1, 11]: 1.242; Complete [1, 12]: 1.933; Difference ([1]; complete vs cholesterol-free media, […]): 0.69; Cholesterol-free media + simvastatin (0.04 μM) [2, 4]: 1.322; Complete Media [2, 5]: 1.744; Difference [2, 13]: 0.42

**Q.** How did the Cholesterol-free [1, 11] turn out when `Nc1c(CC(=O)O)cccc1C(=O)c1ccccc1` [Amfenac (Sodium Hydrate)] was run?
**A.** 1.155

**Q.** What about the Complete [1, 12] of the same compound?
**A.** 1.799

**Q.** What about the Difference [1, 14] of the same compound?
**A.** 0.64

**Q.** And the “Cholesterol-free media + simvastatin (0.04 μM)” value [2, 15]?
**A.** 0.8959

**Q.** What about the “Complete Media” value [2, 16] of the same compound?
**A.** 0.8462

**Q.** What about the Difference [2, 17] of the same compound?
**A.** −0.05

**Q.** Which Cholesterol-free [1, 3] does the source give for `Nc1ccncc1N` [Amifampridine] here?
**A.** 1.476

**Q.** What about the Complete ([1]; NCI-H292 cells, complete media) of the same compound?
**A.** 1.141

**Q.** And the Difference ([1]; complete vs cholesterol-free media, greater than 0 enhanced anti-cancer activity, about 0 neutral, below 0 antagonists)?
**A.** −0.33

**Q.** What about the “Cholesterol-free media + simvastatin (0.04 μM)” value [2, 18] of the same compound?
**A.** 1.299

**Q.** What about the “Complete Media” value ([2]; drug in complete media) of the same compound?
**A.** 1.071

**Q.** What about the Difference [2, 6] of the same compound?
**A.** −0.23

**Q.** What does the source list for `NCCCNCCSP(=O)(O)O` [Amifostine]?
**A.** Difference [1, 7]: −0.17; Cholesterol-free [1, 8]: 1.387; Complete [1, 9]: 1.213; Cholesterol-free media + simvastatin (0.04 μM) [2, 15]: 0.9829; Complete Media [2, 16]: 0.9429; Difference [2, 17]: −0.04

**Q.** Which results are given for `NCC[C@H](O)C(=O)N[C@@H]1C[C@H](N)[C@@H](O[C@H]2O[C@H](CN)[C@@H](O)[C@H](O)[C@H]2O)[C@H](O)[C@H]1O[C@H]1O[C@H](CO)[C@@H](O)[C@H](N)[C@H]1O` [Amikacin (disulfate)]?
**A.** Difference [1, 19]: −0.09; Cholesterol-free [1, 8]: 0.9569; Complete [1, 9]: 0.8685; Cholesterol-free media + simvastatin (0.04 μM) [2, 4]: 0.8392; Complete Media [2, 5]: 1.245; Difference [2, 13]: 0.41

**Q.** What does the source list for `N=C(N)NC(=O)c1nc(Cl)c(N)nc1N` [Amiloride (hydrochloride)]?
**A.** Difference [1, 7]: −0.17; Cholesterol-free [1, 8]: 1.642; Complete [1, 9]: 1.47; Cholesterol-free media + simvastatin (0.04 μM) [2, 4]: 1.016; Complete Media [2, 5]: 0.8717; Difference [2, 6]: −0.14

**Q.** With `N=C(N)NC(=O)c1nc(Cl)c(N)nc1N` [Amiloride hydrochloride dihydrate] as the compound, how does the Cholesterol-free [1, 11] read?
**A.** 0.9043

**Q.** What about the Complete [1, 12] of the same compound?
**A.** 1.06

**Q.** What about the Difference [1, 14] of the same compound?
**A.** 0.16

**Q.** And the “Cholesterol-free media + simvastatin (0.04 μM)” value [2, 18]?
**A.** 1.232

**Q.** What about the “Complete Media” value ([2]; drug in complete media) of the same compound?
**A.** 1.07

**Q.** And the Difference [2, 6]?
**A.** −0.16

**Q.** For `Nc1ccc(C(=O)NCC(=O)[O-])cc1.[Na+]` [Aminohippurate (sodium)], which Difference [1, 19] is on record?
**A.** −0.25

**Q.** What about the Cholesterol-free [1, 3] of the same compound?
**A.** 1.249

**Q.** What about the Complete ([1]; NCI-H292 cells, complete media) of the same compound?
**A.** 0.9961

**Q.** What about the “Cholesterol-free media + simvastatin (0.04 μM)” value [2, 18] of the same compound?
**A.** 1.368

**Q.** What about the “Complete Media” value ([2]; drug in complete media) of the same compound?
**A.** 1.199

**Q.** What about the Difference ([2]; complete media vs cholesterol-free media + simvastatin (0.04 μM), […]) of the same compound?
**A.** −0.17

**Q.** With `Cn1c(=O)c2[nH]cnc2n(C)c1=O` [Aminophylline] as the compound, how does the Difference [1, 7] read?
**A.** −0.14

**Q.** What about the Cholesterol-free [1, 8] of the same compound?
**A.** 0.9006

**Q.** And the Complete [1, 9]?
**A.** 0.7581

**Q.** And the “Cholesterol-free media + simvastatin (0.04 μM)” value [2, 15]?
**A.** 0.918

**Q.** And the “Complete Media” value [2, 16]?
**A.** 0.8588

**Q.** What about the Difference [2, 17] of the same compound?
**A.** −0.06

**Q.** How did the Difference ([1]; Complete minus Cholesterol-free, greater than 0 enhanced anti-cancer activity, about 0 neutral, below 0 antagonists) turn out when `CCCCc1oc2ccccc2c1C(=O)c1cc(I)c(OCCN(CC)CC)c(I)c1` [Amiodarone (hydrochloride)] was run?
**A.** −0.67

**Q.** And the Cholesterol-free ([1]; NCI-H292 cells in cholesterol-free media without statin)?
**A.** 1.555

**Q.** And the Complete ([1]; NCI-H292 cells in complete media)?
**A.** 0.8858

**Q.** What about the “Cholesterol-free media + simvastatin (0.04 μM)” value [2, 20] of the same compound?
**A.** 1.081

**Q.** And the “Complete Media” value [2, 21]?
**A.** 1.107

**Q.** And the Difference [2, 10]?
**A.** 0.03

**Q.** Which results are given for `CCN1CCCC1CNC(=O)c1cc(S(=O)(=O)CC)c(N)cc1OC` (stereo not drawn) [Amisulpride]?
**A.** Cholesterol-free [1, 11]: 1.175; Complete [1, 12]: 1.349; Difference [1, 14]: 0.17; Cholesterol-free media + simvastatin (0.04 μM) [2, 20]: 0.8703; Complete Media [2, 21]: 0.9333; Difference [2, 10]: 0.06
